Experimental data from US4337199A, “Antibiotic β-lactam compounds, production thereof, and their use as antimicrobial agent” (Sanraku-Ocean Co., Ltd., priority 1978, dated 1982).
In brackets after ≈: the same amount, converted by molar mass.

Legend:
Assay in all cases: minimum inhibitory concentration, agar dilution assay
Assay type in all cases: cell-based
Alcaligenes faecalis A 1 = conditions: A1, agar dilution, 35° C., 20 hours, read-out: minimum inhibitory concentration
Procedure: (§1) The antibiotic activities shown in Tables I-1 to I-8 above were determined in the following manner.
(§2) The minimum inhibitory concentrations of the compounds of formula (I-a-1) or (I-b-1) in Tables I-1 to I-7 and the known compounds in Table I-8 on the various microorganisms shown in the above tables were measured by an agar dilution assay method using a brain heart infusion agar medium "Difco" (a product of Difco Laboratories Inc.)
(§3) A sample of the test compound was dissolved in sterile distilled water and diluted to prepare a two-fold dilution series of the compound solution. In a petri plate of 9 cm diameter, 1 ml of the compound solution was added to 9 ml of molten sterile heart infusion agar medium (Difco Laboratories Inc.) at about 60° C. to prepare the compound-containing agar plate. An overnight culture of each test organism indicated in the above table which was prepared by stationary cultivation in Trypto-Soy broth (Eiken Chemi. Co., Ltd.) at 35° C. for 18 to 20 hours, was diluted with the Trypto-Soy broth to give approximately 10^8 cells/ml and the diluted inoculum was inoculated onto the compound-containing agar plates. After cultivating the plates at 35° C. for 20 hours, the growth of the organism was observed. The minimum concentration of the compound at which no growth of the microorganism was noted was determined, and defined as the minimum inhibitory concentration of the test compound.

[1] = tested on: Bacillus subtilis ATCC 6633; conditions: ATCC6633, agar dilution, 35° C., 20 hours, read-out: minimum inhibitory concentration
Procedure: as §1, §2, §3

[2] = tested on: Citrobacter freundii GN 346; conditions: GN346, agar dilution, 35° C., 20 hours, read-out: minimum inhibitory concentration
Procedure: as §1, §2, §3

[3] = tested on: Comamonas terrigena B-996; conditions: B996, agar dilution, 35° C., 20 hours, read-out: minimum inhibitory concentration
Procedure: as §1, §2, §3

[4] = tested on: Enterobacter aerogenes E19; conditions: Klebsiella aerogenes, E19; agar dilution, 35° C., 20 hours; read-out: minimum inhibitory concentration
Procedure: as §1, §2, §3

Enterobacter cloacae 45 = conditions: Enterobacter cloacae, 45; agar dilution, 35° C., 20 hours; read-out: minimum inhibitory concentration
Procedure: as §1, §2, §3

Enterobacter sp. E8 = conditions: SP.E8, agar dilution, 35° C., 20 hours, read-out: minimum inhibitory concentration
Procedure: as §1, §2, §3

Escherichia coli K-12 = conditions: K12, agar dilution, 35° C., 20 hours, read-out: minimum inhibitory concentration
Procedure: as §1, §2, §3

Escherichia coli RGN 823 = conditions: RGN823, agar dilution, 35° C., 20 hours, read-out: minimum inhibitory concentration
Procedure: as §1, §2, §3

[5] = tested on: Klebsiella pneumoniae K-13; conditions: K13, agar dilution, 35° C., 20 hours, read-out: minimum inhibitory concentration
Procedure: as §1, §2, §3

Proteus mirabilis P6 = conditions: P6, agar dilution, 35° C., 20 hours, read-out: minimum inhibitory concentration
Procedure: as §1, §2, §3

Proteus rettgeri P7 = conditions: Providencia rettgeri, P7; agar dilution, 35° C., 20 hours; read-out: minimum inhibitory concentration
Procedure: as §1, §2, §3

Proteus sp. P22 = conditions: agar dilution, 35° C., 20 hours; read-out: minimum inhibitory concentration
Procedure: as §1, §2, §3

Proteus vulgaris GN76 = conditions: GN76, agar dilution, 35° C., 20 hours, read-out: minimum inhibitory concentration
Procedure: as §1, §2, §3

Providencia sp. P8 = conditions: SP.P8, agar dilution, 35° C., 20 hours, read-out: minimum inhibitory concentration
Procedure: as §1, §2, §3

[6] = tested on: Pseudomonas aeruginosa IFO3445; conditions: IFO3445, agar dilution, 35° C., 20 hours, read-out: minimum inhibitory concentration
Procedure: as §1, §2, §3

[7] = tested on: Pseudomonas aeruginosa NCTC10490; conditions: NCTC10490, agar dilution, 35° C., 20 hours, read-out: minimum inhibitory concentration
Procedure: as §1, §2, §3

Sarcina lutea = conditions: Micrococcus luteus; agar dilution, 35° C., 20 hours; read-out: minimum inhibitory concentration
Procedure: as §1, §2, §3

Serratia marcescens S18 = conditions: S18, agar dilution, 35° C., 20 hours, read-out: minimum inhibitory concentration
Procedure: as §1, §2, §3

Serratia marcescens T55 = conditions: T55, agar dilution, 35° C., 20 hours, read-out: minimum inhibitory concentration
Procedure: as §1, §2, §3

[8] = tested on: Staphylococcus aureus FDA 209P; conditions: FDA209P, agar dilution, 35° C., 20 hours, read-out: minimum inhibitory concentration
Procedure: as §1, §2, §3

[9] = tested on: Staphylococcus aureus Russell; conditions: agar dilution, 35° C., 20 hours, read-out: minimum inhibitory concentration
Procedure: as §1, §2, §3

[10] = tested on: Staphylococcus aureus Smith; conditions: agar dilution, 35° C., 20 hours, read-out: minimum inhibitory concentration
Procedure: as §1, §2, §3

[11] = tested on: Staphylococcus epidermidis; conditions: agar dilution, 35° C., 20 hours, read-out: minimum inhibitory concentration
Procedure: as §1, §2, §3

Compound	MIC (Alcaligenes faecalis A 1) [µg/mL]	MIC [1] [µg/mL]	MIC [2] [µg/mL]	MIC [4] [µg/mL]	MIC (Enterobacter cloacae 45) [µg/mL]	MIC (Enterobacter sp. E8) [µg/mL]	MIC (Escherichia coli K-12) [µg/mL]	MIC (Escherichia coli RGN 823) [µg/mL]	MIC (Proteus mirabilis P6) [µg/mL]	MIC (Proteus rettgeri P7) [µg/mL]	MIC (Proteus sp. P22) [µg/mL]	MIC (Proteus vulgaris GN76) [µg/mL]	MIC (Providencia sp. P8) [µg/mL]	MIC [6] [µg/mL]	MIC [7] [µg/mL]	MIC (Sarcina lutea) [µg/mL]	MIC (Serratia marcescens S18) [µg/mL]	MIC (Serratia marcescens T55) [µg/mL]	MIC [8] [µg/mL]	MIC [9] [µg/mL]	other results
CC(O)[C@H]1C(=O)N2C(C(=O)O)=C(SC3CCCCC3)C[C@H]12 (some centres unmarked)	25 (≈ 80.3 µM)	6.25 (≈ 20.1 µM)	> 100	> 100	> 100	> 100	> 100	> 100	100 (≈ 321 µM)	> 100	> 100	> 100	> 100	> 100	25 (≈ 80.3 µM)	0.05 (≈ 0.161 µM)	> 100	> 100	0.05 (≈ 0.161 µM)	0.2 (≈ 0.642 µM)	MIC [3]: 0.05 µg/mL (≈ 0.161 µM); MIC [5]: > 100 µg/mL; MIC [10]: 0.39 µg/mL (≈ 1.25 µM); MIC [11]: 0.39 µg/mL (≈ 1.25 µM)
CC(O)C1C(=O)N2C(C(=O)O)=C(SC3CCCCC3)CC12 (centres unmarked)	1.56 (≈ 5.01 µM)	0.013 (≈ 0.0417 µM)	100 (≈ 321 µM)	50 (≈ 161 µM)	50 (≈ 161 µM)	12.5 (≈ 40.1 µM)	12.5 (≈ 40.1 µM)	100 (≈ 321 µM)	6.25 (≈ 20.1 µM)	100 (≈ 321 µM)	> 100	> 100	25 (≈ 80.3 µM)	> 100	50 (≈ 161 µM)	< 0.007	> 100	> 100	0.013 (≈ 0.0417 µM)	0.013 (≈ 0.0417 µM)	MIC [3]: < 0.007 µg/mL; MIC [5]: > 100 µg/mL; MIC [10]: 0.05 µg/mL (≈ 0.161 µM); MIC [11]: 0.05 µg/mL (≈ 0.161 µM)
CC(C)C1C(=O)N2C(C(=O)O)=C(Sc3ccccc3)CC12 (centres unmarked)	6.25 (≈ 20.6 µM)	0.1 (≈ 0.33 µM)	> 100	> 100	> 100	> 100	50 (≈ 165 µM)	50 (≈ 165 µM)	> 100	100 (≈ 330 µM)	100 (≈ 330 µM)	> 100	25 (≈ 82.4 µM)	25 (≈ 82.4 µM)	6.25 (≈ 20.6 µM)	0.013 (≈ 0.0429 µM)	> 100	> 100	0.013 (≈ 0.0429 µM)	0.025 (≈ 0.0824 µM)	MIC [3]: 0.007 µg/mL (≈ 0.0231 µM); MIC [5]: > 100 µg/mL; MIC [10]: 0.2 µg/mL (≈ 0.659 µM); MIC [11]: 0.025 µg/mL (≈ 0.0824 µM)
CC(O)[C@H]1C(=O)N2C(C(=O)O)=C(Sc3ccncc3)C[C@H]12 (stereo partly drawn) [Example 59, 5,6-trans-3-(4-Pyridylthio)-6-(1-hydroxyethyl)-7-oxo-1-azabicyclo[3.2.0]hept-2-ene-2-carboxylic acid]	0.025 (≈ 0.0816 µM)	0.2 (≈ 0.653 µM)	100 (≈ 326 µM)	50 (≈ 163 µM)	50 (≈ 163 µM)	0.78 (≈ 2.55 µM)	1.56 (≈ 5.09 µM)	25 (≈ 81.6 µM)	6.25 (≈ 20.4 µM)	6.25 (≈ 20.4 µM)			1.56 (≈ 5.09 µM)		1.56 (≈ 5.09 µM)	0.1 (≈ 0.326 µM)		100 (≈ 326 µM)	0.1 (≈ 0.326 µM)	0.2 (≈ 0.653 µM)	MIC [10]: 0.2 µg/mL (≈ 0.653 µM); MIC [11]: 0.2 µg/mL (≈ 0.653 µM)
CCC1C(=O)N2C(C(=O)O)=C(Sc3ccccn3)CC12 (centres unmarked) [Example 65, 3-(2-Pyridylthio)-6-ethyl-7-oxo-1-azabicyclo-[3.2.0]hept-2-ene-2-carboxylicacid]										6.25 (≈ 21.5 µM)	6.25 (≈ 21.5 µM)	12.5 (≈ 43.1 µM)	1.56 (≈ 5.37 µM)	12.5 (≈ 43.1 µM)	25 (≈ 86.1 µM)		12.5 (≈ 43.1 µM)	25 (≈ 86.1 µM)			
